Key:
Format in all cases: cell-based
B16.BL6 melanoma cells [1] = experiment: Scintillation, epitopes per cell (Example 15)
Description: Radioactive labelled and regular alpha-Gal trisaccharide-carbamate (9) probe (labeled on the cyclic carbamate carbon) was dissolved in HBSS containing D-glucose (without Mg^2+ and Ca^2+) (Gibco Invitrogen, Taastrup, Denmark) and passed through sterile filters (0.2 μm Supor® Acrodisc® 13, Gelman Sciences, Ann Arbor, Mich.). Eight different concentrations of radioactive labelled alpha-Gal trisaccharide-carbamate (9) (1 μg, 10 μg, 100 μg, 1 mg, 5 mg, 10 mg, 15 mg and 20 mg) and […] of regular “Glycom conjugate” (10 μg, 100 μg, 1 mg, 5 mg, 10 mg, 15 mg and 20 mg) were used. Twelve flasks (300 cm^2) (TPP, Trasadingen Switzerland) were prepared, each containing 10×10^6 B16.BL6 cells, for conjugation with the radioactive labelled trisaccharide probe, and 8 flasks (150 cm^2) (TPP, Trasadingen Switzerland) were prepared, each containing 5×10^6 B16.BL6 cells, for conjugation with the non-radioactive conjugate. The Glycom conjugate was added and the total volume was adjusted with HBSS containing D-glucose (without Mg^2+ and Ca^2+) so that each large flask (300 cm^2) contained a final volume of 20 mL and each medium flask (150 cm^2) contained a final volume of 10 mL. Cells were incubated with the “Glycom conjugate” for 1.5 hours at 37° C. After conjugation, the supernatant from each flask was transferred to separate 50 mL tubes (TPP, Trasadingen Switzerland). The cells were harvested with Cell Dissociation Solution (10 mL per large flask and 5 mL per medium flask) (Sigma-aldrich, Saint Louis, Mo.) and transferred to the 50 mL tubes containing the supernatant. The cells were centrifuged for 5 minutes at 300 G at 20° C. and resuspended in 5 mL of PBS (without Mg^2+ and Ca^2+). This was repeated 3 times before cell concentration and viability was determined by microscopic evaluation of trypan blue stained cell samples.
Cells incubated with radioactive labelled trisaccharide probe were centrifuged for 5 minutes at 1000 G at 20° C. The supernatant was discharged and the remaining pellets were dried. Subsequently, the pellets were dissolved in 450 μl Mili-Q H2O and 1.5 mL of scintillation fluid was added. Standards for the scintillation were made by adding 500 pCi, 0.5 pCi and 0 pCi to the 3 samples of control cells. The samples were stored at room temperature for 3 days, before the cell suspensions were transferred to scintillation vials and counted.

B16.BL6 melanoma cells [2] = experiment: Cell viability after 1 hour conjugation, trypan blue (Example 12); settings: for Viability of cells harvested: 1 hour
Description: The alpha-Gal trisaccharide-carbamate probe (9) was dissolved in both PBS (without Mg^2+ and Ca^2+) (Gibco Invitrogen, Taastrup, Denmark) and HBSS (with D-glucose) (Gibco Invitrogen, Taastrup, Denmark) and passed through sterile filters (Sartorius Minisart®, 0.20 my) (Sartorius, Goettingen, Germany). Three different concentrations of the trisaccharide probe were prepared in both PBS and HBSS.
Eight small flasks (25 cm^2) (TPP, Trasadingen Switzerland) were prepared, each containing 10^6 B16.BL6 cells, and the trisaccharide probe was added. Total volume of the flasks was 4.6 mL. The cells were incubated with the conjugate for 1 hour at 37° C. and 5% CO2.
After conjugation, the supernatant from each flask was transferred to separate 10 mL tubes (TPP, Trasadingen Switzerland). The cells were harvested with Cell Dissociation Solution (2 mL per flask) (Sigma-aldrich, Saint Louis, Mo.) and transferred to the 10 mL tubes. Cells were centrifuged for 5 minutes at 300 G at 20° C. and resuspended in 0.5 mL of PBS or HBSS. Cell concentration and viability was determined by microscopic evaluation of trypan blue stained cell samples.

B16.BL6 melanoma cells [3] = experiment: Staining of cell smears with FITC-labelled GS1B4 (Example 11)
Description: (§1) Five hundred mg of alpha-Gal trisaccharide-carbamate (9) was dissolved in PBS (without Mg^2+ and Ca^2+) (Gibco Invitrogen, Taastrup, Denmark) and passed through a sterile filter (Sartorius Minisart®, 0.20 my) (Sartorius, Goettingen, Germany). Eight different concentrations of conjugate were prepared. Two mL of each conjugate dilution was added to a flask with 2 mL of PBS (without Mg^2+ and Ca^2+) and 600 μl of cell suspension containing 10^6 B16.BL6 cells. The final volume of the flasks was 4.6 mL. The flasks were numbered 1 to 10. Flasks 1 and 10 contained no conjugate and served as controls. The cells were incubated with the conjugate for 3 hours and 25 minutes at 37° C. and 5% CO2.
Smears of cells from conjugation reaction 1 (non-conjugated control cells), 2, 4, 6 and 8 were incubated for 1 hour at room temperature with FITC-labelled GS1B4 diluted 1:200 in TBS. After a rinse in TBS, one drop of Fluorescent Mounting Medium (DAKO) was placed on each of the cell specimens and glass coverslips were placed on top. Binding of FITC-labelled GS1B4 to Galα1,3Gal on conjugated cells was assessed by fluorescence microscopy.

B16.BL6 melanoma cells [4] = experiment: Flow cytometry with FITC-labelled GS1B4 (Example 11)
Description: as §1
B16.BL6 cells from conjugation reaction 1 (non-conjugated cells), 2, 4, 6 and 8 were analysed by flow cytometry. One hundred μL of cell suspension containing 1×10^5 cells were incubated for 15 minutes at 4° C. with 10 μg per mL (1:100 dilution) of FITC-labelled GS1B4 in TBS containing 1% BSA. The proportion of cells stained, mean and median cell fluorescence intensity was determined by flow cytometry. Afterwards, cells were washed once in PBS and measurements were repeated. Rabbit red blood cells (RRBC) known to express ˜2×10^6 Galα1,3Gal epitopes per cell were used for comparison. The analyses of conjugated B16.BL6 cells and RRBCs were performed on different days.

[5] = unwashed cells, reaction 2 (200 mg conjugate)
[6] = unwashed cells, reaction 6 (10 mg conjugate)
[7] = unwashed cells, reaction 8 (2 mg conjugate)
[8] = washed cells, reaction 2 (200 mg conjugate)
[9] = washed cells, reaction 6 (10 mg conjugate)
[10] = washed cells, reaction 8 (2 mg conjugate)

O=[13C]1N[C@@H]2O[C@H](CO)[C@@H](O[C@@H]3O[C@H](CO)[C@H](O)[C@H](O[C@H]4O[C@H](CO)[C@H](O)[C@H](O)[C@H]4O)[C@H]3O)[C@H](O)[C@H]2O1 [radioactive labelled conjugate]
Epitopes per cell (B16.BL6 melanoma cells [1]; 1 μg conjugate added): 1.0 × 10^6
Relation of scintillation counts to dose of conjugate (B16.BL6 melanoma cells [1]; 1 μg-20 mg): positive correlation
Epitopes per cell (B16.BL6 melanoma cells [1]; 10 μg conjugate added): 0.6 × 10^6
Epitopes per cell (B16.BL6 melanoma cells [1]; 100 μg conjugate added): 6.8 × 10^6
Epitopes per cell (B16.BL6 melanoma cells [1]; 1 mg conjugate added): 33.9 × 10^6
Epitopes per cell (B16.BL6 melanoma cells [1]; 5 mg conjugate added): 175.3 × 10^6
Epitopes per cell (B16.BL6 melanoma cells [1]; 15 mg conjugate added): 501.2 × 10^6
Epitopes per cell (B16.BL6 melanoma cells [1]; 20 mg conjugate added): 515.2 × 10^6

O=C1N[C@@H]2O[C@H](CO)[C@@H](O[C@@H]3O[C@H](CO)[C@H](O)[C@H](O[C@H]4O[C@H](CO)[C@H](O)[C@H](O)[C@H]4O)[C@H]3O)[C@H](O)[C@H]2O1 [Compound 9, alpha-Gal trisaccharide-carbamate]
Viability of cells after incubation, before harvest (B16.BL6 melanoma cells [2]; after the 1-hour incubation with the trisaccharide probe): most of the cells were viable
Viability of cells harvested (B16.BL6 melanoma cells [2]; reaction HA, 16 mg, HBSS (with D-glucose)): 33.3%
Viability of cells harvested (B16.BL6 melanoma cells [2]; reaction HB, 2 mg, HBSS (with D-glucose)): 41.7%
Viability of cells harvested (B16.BL6 melanoma cells [2]; reaction HC, 1 mg, HBSS (with D-glucose)): 41.6%
Viability of cells harvested (B16.BL6 melanoma cells [2]; reaction PA, 16 mg, PBS): 14.3%
Viability of cells harvested (B16.BL6 melanoma cells [2]; reaction PB, 2 mg, PBS): 32.0%
Viability of cells harvested (B16.BL6 melanoma cells [2]; reaction PC, 1 mg, PBS): 37.5%
Staining of cell membranes with FITC-labelled GS1B4 (B16.BL6 melanoma cells [3]; conjugation reaction 2 (200 mg)): heavily stained
Galα1,3Gal epitopes detected by binding of FITC-labelled GS1B4 on cell smears (B16.BL6 melanoma cells [3]; conjugation reactions 2, 4, 6 and 8 (200, 50, 10, 2 mg)): found on cells from all conjugation reactions tested
Galα1,3Gal epitopes detected by binding of FITC-labelled GS1B4, flow cytometry (B16.BL6 melanoma cells [4]; conjugation reactions 2, 6 and 8): found on B16.BL6 cells from all conjugation reactions tested
Number of Galα1,3Gal-epitopes on the conjugated cells (B16.BL6 melanoma cells [4]; from fluorescence intensity, compared with rabbit red blood cells): > 2×10^6 Galα1,3Gal epitopes
Cells marked with FITC-GS1B4 (B16.BL6 melanoma cells [4]; reaction 2 (200 mg conjugate)): 95.82%
Cells marked with FITC-GS1B4 (B16.BL6 melanoma cells [4]; reaction 6, 10 mg conjugate): 62.17%
Cells marked with FITC-GS1B4 (B16.BL6 melanoma cells [4]; reaction 8, 2 mg conjugate): 56.82%
Mean fluorescence intensity (B16.BL6 melanoma cells [4]; [5]): 726.72
Median fluorescence intensity (B16.BL6 melanoma cells [4]; [5]): 523.30
Mean fluorescence intensity (B16.BL6 melanoma cells [4]; [6]): 862.24
Median fluorescence intensity (B16.BL6 melanoma cells [4]; [6]): 798.63
Mean fluorescence intensity (B16.BL6 melanoma cells [4]; [7]): 594.99
Median fluorescence intensity (B16.BL6 melanoma cells [4]; [7]): 572.55
Mean fluorescence intensity (B16.BL6 melanoma cells [4]; [8]): 447.48
Median fluorescence intensity (B16.BL6 melanoma cells [4]; [8]): 321.97
Mean fluorescence intensity (B16.BL6 melanoma cells [4]; [9]): 439.04
Median fluorescence intensity (B16.BL6 melanoma cells [4]; [9]): 406.79
Mean fluorescence intensity (B16.BL6 melanoma cells [4]; [10]): 264.30
Median fluorescence intensity (B16.BL6 melanoma cells [4]; [10]): 259.45

Source: patent publication US8785594B2, “Glycoproteins and glycosylated cells and a method for the preparation of the same” (Glycom A/S, priority 2007, dated 2014)
